{"source": "patent US20260191766A1", "about": "“USE OF CONDITIONED MEDIUM DERIVED FROM CULTIVATION OF MESENCHYMAL STEM CELLS OF THE UMBILICAL CORD FOR INDUCING, STIMULATING AND PROMOTING HAIR GROWTH AND REGENERATION” (CELLRESEARCH CORPORATION PTE. LTD., priority 2022, published 2026)", "molecules": {"B1": {"name": "TGF-β2: transforming growth factor, literature data (protein, UniProt P61812 303-414, looked up)", "Transforming growth factor …": "ALDAAYCFRNVQDNCCLRPLYIDFKRDLGWKWIHEPKGYNANFCAGACPYLWSSDTQHSRVLSLYNTINPEASASPCCVSQDLEPLTILYYIGKTPKIEQLSNMIVKSCKCS"}}, "key": {"[1]": {"tested_on": "COVID-19-induced scalp alopecia (telogen effluvium)", "test": "Example 8: case study, COVID-19-induced telogen effluvium", "type": "in vivo, human", "conditions": "same patient; minoxidil and LED light treatment (Hairmax)", "method": "COVID-19-induced scalp Alopecia can induce telogen effluvium (TE) which refers to diffuse scalp alopecia. A patient with severe chronic TE with no spontaneous recovery after 6 months of hair loss and no response to conventional treatment of minoxidil and LED light treatment (Hairmax) was treated with a composition comprising conditioned medium derived from cultivation of mesenchymal stem cells of the umbilical cord (CALECIM® Advanced Hair System).\nThe scalp of the patient was progressively treated with rubbing with an alcohol swab, then 1 ml of a composition comprising conditioned medium derived from cultivation of mesenchymal stem cells of the umbilical cord was applied and massaged in till dry. The patient was advised to wait until evening to wash their hair. Five treatments of conditioned medium derived from cultivation of mesenchymal stem cells of the umbilical cord spaced a month apart were administered."}, "[2]": {"tested_on": "human follicle dermal papilla cells (HFDPC)", "test": "growth promotion on cultured human follicle dermal papilla cells (WST-8)", "type": "cell-based", "from_the_text": "Hair growth is controlled by a unique repetitive cycle comprised of anagen, catagen and telogen phases. Dermal papilla cells (DPCs), a group of specialized fibroblasts within the hair follicle bulb, have an essential function in the control of hair growth not only in the normal hair cycle but also in the pathogenesis of certain conditions, for example in androgenetic alopecia. Therefore, factors affecting the functions of DPCs in hair loss are of great importance from the therapeutic viewpoint. […] HFDPCs are either treated with different concentrations of Minodixil (0.0125-200 μg/mL; see Table 3, left column, serving as the reference) or conditioned medium of the invention at different dilutions (PC, dilution range from 10-1280 times; see third column of Table 3). The negative control (NC) refers to HFDPCs incubated with basal medium only. All data are shown as the mean±standard deviation (SD). For comparison of different treatments between 2 groups, the Student's t test was used. p<0.05 was considered significant, p<0.01 would normally be considered highly significant, and p<0.001 extremely significant. After calculation, p is 0.03."}, "elastin mRNA in HDFs": {"tested_on": "elastin mRNA in HDFs", "conditions": "24 hours, 1 ng/ml; cited from earlier work"}}}
{"molecule": "Nc1cc(N2CCCCC2)nc(N)[n+]1[O-]", "note": "[Minoxidil]", "values": [{"measurement": "response to conventional treatment before the study treatment", "setting": "[1]", "value": "no response"}, {"measurement": "cell count of HFDPC (% of control)", "setting": "[2]; Minoxidil 0.0125 ug/mL", "value": "94 ± 0.6 % of control"}, {"measurement": "cell count of HFDPC (% of control)", "setting": "[2]; Minoxidil 0.025 ug/mL", "value": "92.2 ± 1.4 % of control"}, {"measurement": "cell count of HFDPC (% of control)", "setting": "[2]; Minoxidil 0.05 ug/mL", "value": "120.8 ± 4.8 % of control"}, {"measurement": "cell count of HFDPC (% of control)", "setting": "[2]; Minoxidil 0.1 ug/mL", "value": "120.8 ± 8.8 % of control"}, {"measurement": "cell count of HFDPC (% of control)", "setting": "[2]; Minoxidil 0.2 ug/mL", "value": "123.2 ± 8.4 % of control"}, {"measurement": "cell count of HFDPC (% of control)", "setting": "[2]; Minoxidil 2 ug/mL", "value": "124.5 ± 10.2 % of control"}, {"measurement": "cell count of HFDPC (% of control)", "setting": "[2]; Minoxidil 20 ug/mL", "value": "98.5 ± 7.7 % of control"}, {"measurement": "cell count of HFDPC (% of control)", "setting": "[2]; Minoxidil 200 ug/mL", "value": "43 ± 2.6 % of control"}, {"measurement": "more cells compared to negative control", "setting": "[2]; diluted 320 times", "value": "around 20%"}]}
{"molecule": "TGF-β1: transforming growth factor, literature data", "values": [{"measurement": "maximum increase of elastin mRNA steady-state levels", "setting": "elastin mRNA in HDFs", "value": 30, "unit": "fold"}]}
{"molecule": "B1", "values": [{"measurement": "maximum increase of elastin mRNA steady-state levels", "setting": "elastin mRNA in HDFs", "value": 30, "unit": "fold"}]}
